Starred links: 1 amine or outer side, 2 acyl side, 3 side chain; linkers in the order of their positions; H or OH if unused. Non-standard residues stand in square brackets, D forms with d. Residues, ends and D or L forms follow the SMILES beside them. Groups on a side chain read outwards from the residue. No end group written: not given here. *: point of attachment. N_Butyl_Phe = CCCCN([C@@H](Cc1ccccc1)C(=O)[*:2])[*:1]; Gly(N-CH2CH2-imidazol-4-yl) = O=C(O)CNCCc1c[nH]cn1; C18 diacid = O=C(O)CCCCCCCCCCCCCCCCC(=O)*; X8 = O=C([C@H](CCc1nn[nH]n1)N[*:1])[*:2]; Dip = N[C@H](C(=O)O)C(c1ccccc1)c1ccccc1; γGlu = O=C(O)[C@H](CCC(=O)[*:2])N[*:1]; His(τ-Me) = Cn1cnc(C[C@H](N)C(=O)O)c1; Palmitoyl = CCCCCCCCCCCCCCCC(=O)*; Myristoyl = CCCCCCCCCCCCCC(=O)*; β3hF = N[C@H](CC(=O)O)Cc1ccccc1; PEG4 = NCCOCCOCCOCCOCCC(=O)O; Lauroyl = CCCCCCCCCCCC(=O)*; Isovaleryl = CC(C)CC(=O)*; Octanoyl = CCCCCCCC(=O)*; AEEA = NCCOCCOCC(=O)O; NHBn = c1ccc(CN*)cc1; Propionyl = CCC(=O)*; Ahx = NCCCCCC(=O)O; βAla = NCCC(=O)O
T1: human ferroportin (SLC40A1) fused in frame with GFP, stably expressed in HEK293 cells (human, UniProt Q9NP59 1-571)
T1 sequence (looked up): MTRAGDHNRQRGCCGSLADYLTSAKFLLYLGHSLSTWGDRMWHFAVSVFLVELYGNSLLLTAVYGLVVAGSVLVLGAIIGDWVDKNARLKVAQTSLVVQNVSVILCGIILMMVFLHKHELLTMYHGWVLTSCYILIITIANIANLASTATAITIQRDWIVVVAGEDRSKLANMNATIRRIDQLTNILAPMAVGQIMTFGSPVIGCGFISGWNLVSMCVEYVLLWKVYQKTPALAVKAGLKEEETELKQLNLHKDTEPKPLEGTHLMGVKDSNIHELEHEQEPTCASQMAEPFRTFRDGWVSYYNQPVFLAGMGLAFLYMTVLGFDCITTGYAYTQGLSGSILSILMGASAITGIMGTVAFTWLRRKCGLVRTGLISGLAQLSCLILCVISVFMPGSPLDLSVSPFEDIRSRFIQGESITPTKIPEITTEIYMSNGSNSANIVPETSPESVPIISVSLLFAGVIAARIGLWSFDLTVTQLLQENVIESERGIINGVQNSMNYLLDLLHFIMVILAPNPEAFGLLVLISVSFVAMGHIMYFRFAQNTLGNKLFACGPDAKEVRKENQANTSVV

T2: ferroportin (Homo sapiens, UniProt Q9NP59)
T2 sequence (Q9NP59 1-571): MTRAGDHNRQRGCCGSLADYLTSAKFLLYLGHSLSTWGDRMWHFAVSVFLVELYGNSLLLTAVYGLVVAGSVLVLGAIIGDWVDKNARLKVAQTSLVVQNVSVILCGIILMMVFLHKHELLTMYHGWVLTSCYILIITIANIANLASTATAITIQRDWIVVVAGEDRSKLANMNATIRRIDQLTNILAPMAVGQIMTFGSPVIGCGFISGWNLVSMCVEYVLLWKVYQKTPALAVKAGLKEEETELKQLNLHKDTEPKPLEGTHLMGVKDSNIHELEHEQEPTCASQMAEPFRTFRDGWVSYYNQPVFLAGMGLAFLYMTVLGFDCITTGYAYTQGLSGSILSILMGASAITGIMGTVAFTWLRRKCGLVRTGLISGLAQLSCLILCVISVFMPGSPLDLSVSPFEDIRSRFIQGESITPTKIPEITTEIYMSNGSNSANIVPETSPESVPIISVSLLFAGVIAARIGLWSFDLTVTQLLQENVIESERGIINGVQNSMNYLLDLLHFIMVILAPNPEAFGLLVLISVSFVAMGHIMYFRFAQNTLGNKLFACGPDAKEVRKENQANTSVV


Each molecule was assayed against T1, human ferroportin (SLC40A1) fused in … (assay: cell-based or functional assay). Details: not given.

Molecule	FPN IC50 [nM]
Cyclohexanecarboxylic_Acid-LTH[Dip]PK([Ahx-Palmitoyl])[N_Butyl_Phe] [Cyclohexanecarboxylic_Acid-L-T-H-[Dpa]-P-[Lys(Ahx_Palm)]-N_Butyl_Phe]	3300
Heptanoic_Acid-LTH[Dip]PK([Ahx-Palmitoyl])[N_Butyl_Phe] [Heptanoic_Acid-L-T-H-[Dpa]-P-[Lys(Ahx_Palm)]-N_Butyl_Phe]	> 3000
Isovaleryl-LTH[Dip]PK([γGlu-Palmitoyl])[N_Butyl_Phe] [Isovaleric Acid-L-T-H-[Dpa]-P-[Lys(IsoGlu_Palm)]-N_Butyl_Phe]	222
Cyclohexanoic_Acid-LTH[Dip]PK([Ahx-Palmitoyl])[N_Butyl_Phe] [Cyclohexanoic_Acid-L-T-H-[Dpa]-P-[Lys(Ahx_Palm)]-N_Butyl_Phe]	3380
Octanoic_Acid-LTH[Dip]PK([Ahx-Palmitoyl])-N_Butyl_Phe [Octanoic_Acid-L-T-H-[Dpa]-P-[Lys(Ahx_Palm)]-N_Butyl_Phe]	1020
Isovaleryl-LTH[Dip]PK([AEEA-AEEA-γGlu-C18 diacid])[N_Ethyl_Nap] [Isovaleric Acid-L-T-H-[Dpa]-P-[Lys(1PEG2_1PEG2_IsoGlu_C18_Diacid)]-N_Ethyl_Nap]	1440
Propionyl-LTH[Dip]PK([Ahx-Palmitoyl])[N_Butyl_Phe] [[Propionic_acid]-L-T-H-[Dpa]-P-[Lys(Ahx_Palm)]-N_Butyl_Phe]	218
Isovaleryl-LTH[Dip]PK([βAla-Palmitoyl])[N_Butyl_Phe] [Isovaleric Acid-L-T-H-[Dpa]-P-[Lys(bAla_Palm)]-N_Butyl_Phe]	469
Isovaleryl-LTH[Dip]K([Ahx-Palmitoyl])[N_Butyl_Phe] [Isovaleric Acid-L-T-H-[Dpa]-[Lys(Ahx_Palm)]-N_Butyl_Phe]	> 3000
Isovaleryl-LTH[Dip]P[N_Butyl_Phe] [Isovaleric Acid-L-T-H-[Dpa]-P-N_Butyl_Phe]	1040

What follows are molecules tested against T2, ferroportin (assay: FPN activity assay: internalization/degradation of ferroportin-GFP in stably transfected HEK293 cells (loss of GFP fluorescence)). Details: Table 6A; read-out: FPN EC50.
Type: cell-based
Description: Following internalization, the ferroporin protein is degraded.
A retro inverse peptide is a peptide with a reversed sequence in all D amino acids. An example is that Hy-Glu-Thr-His-NH2 becomes Hy-DHis-DThr-DGlu-NH2. The EC50 of these reference compounds for ferroportin internalization/degradation was determined according to the FPN activity assay described above. These peptides served as control standards.

Molecule	DC50 [nM]
CCCCCCCCCCCCCCCC(=O)NCCCCCC(=O)NCCCC[C@H](NC(=O)C[C@H](Cc1ccccc1)NC(=O)[C@@H](CCCCN)NC(=O)[C@@H](NC(=O)[C@H](CO)NC(=O)[C@@H]1CCCN1C(=O)[C@@H](NC(=O)[C@H](Cc1c[nH]cn1)NC(=O)[C@@H](NC(=O)[C@H](CCC(=O)O)NC(=O)CC(C)C)[C@@H](C)O)C(c1ccccc1)c1ccccc1)[C@@H](C)CC)C(N)=O [compound 20] (Isovaleryl-ETH[Dip]PSI[dK][β3hF]K([Ahx-Palmitoyl])-NH2)	46.3
CCCCCCCCCCCCCCCC(=O)NCCCCCC(=O)NCCCC[C@H](NC(=O)[C@@H](NC(=O)[C@H](C)NC(=O)[C@@H]1CCCN1C(=O)[C@@H](NC(=O)[C@H](Cc1c[nH]cn1)NC(=O)[C@@H](NC(=O)[C@H](CCC(=O)O)NC(=O)CC(C)C)[C@@H](C)O)C(c1ccccc1)c1ccccc1)[C@@H](C)CC)C(=O)NCc1ccccc1 [compound 52] (Isovaleryl-ETH[Dip]PAIK([Ahx-Palmitoyl])-NHBn)	162
CCCCCCCC(=O)NCCCCCC(=O)NCCCC[C@H](NC(=O)[C@@H](NC(=O)[C@H](C)NC(=O)[C@@H]1CCCN1C(=O)[C@@H](NC(=O)[C@H](Cc1c[nH]cn1)NC(=O)[C@@H](NC(=O)[C@H](CCC(=O)O)NC(=O)CC(C)C)[C@@H](C)O)C(c1ccccc1)c1ccccc1)[C@@H](C)CC)C(=O)N[C@H](CC(N)=O)Cc1ccccc1 [compound 103] (Isovaleryl-ETH[Dip]PAIK([Ahx-Octanoyl])[β3hF]-NH2)	162
CC[C@H](C)[C@H](NC(=O)[C@H](C)NC(=O)[C@@H]1CCCN1C(=O)[C@@H](NC(=O)[C@H](Cc1cn(C)cn1)NC(=O)[C@@H](NC(=O)[C@H](CCC(=O)O)NC(=O)CC(C)C)[C@@H](C)O)C(c1ccccc1)c1ccccc1)C(=O)N[C@@H](CCCCNC(C)=O)C(=O)N[C@H](CC(=O)N[C@H](CCCCN)C(=O)N[C@@H](C)C(N)=O)Cc1ccccc1 [compound 36] (Isovaleryl-ET[His(τ-Me)][Dip]PAIK(Ac)[β3hF][dK]A-NH2)	> 3000
CC[C@H](C)[C@H](NC(=O)[C@@H](NC(=O)[C@@H]1CCCN1C(=O)[C@@H](NC(=O)[C@H](Cc1c[nH]cn1)NC(=O)[C@@H](NC(=O)[C@H](CCC(=O)O)NC(=O)CNCC(=O)O)[C@@H](C)O)C(c1ccccc1)c1ccccc1)[C@@H](C)CC)C(=O)N[C@@H](CCCCNC(C)=O)C(=O)N[C@H](CC(N)=O)Cc1ccccc1 [compound 71]	> 5000
CC[C@H](C)[C@H](NC(=O)[C@H](C)NC(=O)[C@@H]1CCCN1C(=O)[C@@H](NC(=O)[C@H](Cc1cn(C)cn1)NC(=O)[C@@H](NC(=O)[C@H](CCc1nn[nH]n1)NC(=O)CC(C)C)[C@@H](C)O)C(c1ccccc1)c1ccccc1)C(=O)N[C@@H](CCCCNC(C)=O)C(=O)N[C@H](CC(=O)N[C@H](CCCCN)C(=O)N[C@@H](C)C(N)=O)Cc1ccccc1 [compound 40] (Isovaleryl-[X8]T[His(τ-Me)][Dip]PAIK(Ac)[β3hF][dK]A-NH2)	> 3000
CCCCCCCCCCCCCCCC(=O)NCCOCCOCCOCCOCCC(=O)NCCCC[C@H](NC(=O)[C@@H](NC(=O)[C@H](C)NC(=O)[C@@H]1CCCN1C(=O)[C@@H](NC(=O)[C@H](Cc1c[nH]cn1)NC(=O)[C@@H](NC(=O)[C@H](CCC(=O)O)NC(=O)CC(C)C)[C@@H](C)O)C(c1ccccc1)c1ccccc1)[C@@H](C)CC)C(=O)N[C@H](CC(N)=O)Cc1ccccc1 [compound 95] (Isovaleryl-ETH[Dip]PAIK([PEG4-Palmitoyl])[β3hF]-NH2)	32.7
CCCCCCCCCCCC(=O)NCCCCCC(=O)NCCCC[C@H](NC(=O)[C@@H](NC(=O)[C@H](C)NC(=O)[C@@H]1CCCN1C(=O)[C@@H](NC(=O)[C@H](Cc1c[nH]cn1)NC(=O)[C@@H](NC(=O)[C@H](CCC(=O)O)NC(=O)CC(C)C)[C@@H](C)O)C(c1ccccc1)c1ccccc1)[C@@H](C)CC)C(=O)N[C@H](CC(N)=O)Cc1ccccc1 [compound 105] (Isovaleryl-ETH[Dip]PAIK([Ahx-Lauroyl])[β3hF]-NH2)	109
CCCCCCCCCCCCCCCC(=O)NCCCCCC(=O)NCCCC[C@H](NC(=O)[C@@H](NC(=O)[C@H](C)NC(=O)[C@@H]1CCCN1C(=O)[C@@H](NC(=O)CN(CCc1c[nH]cn1)C(=O)[C@@H](NC(=O)[C@H](CCC(=O)O)NC(=O)CC(C)C)[C@@H](C)O)C(c1ccccc1)c1ccccc1)[C@@H](C)CC)C(=O)N[C@H](CC(N)=O)Cc1ccccc1 [compound 88] (Isovaleryl-ET[Gly(N-CH2CH2-imidazol-4-yl)][Dip]PAIK([Ahx-Palmitoyl])[β3hF]-NH2)	> 3000

Same assay, conditions: ferroportin-GFP HEK293 cells, compound incubated at least 18 hours; read-out: FPN IC50

Molecule	DC50 [nM]
CCCCCCCCCCCCCC(=O)NCCCCCC(=O)NCCCC[C@H](NC(=O)[C@@H](NC(=O)[C@H](C)NC(=O)[C@@H]1CCCN1C(=O)[C@H](Cc1ccccc1)NC(=O)[C@H](Cc1c[nH]cn1)NC(=O)[C@@H](NC(=O)[C@H](CCC(=O)O)NC(=O)CC(C)C)[C@@H](C)O)[C@@H](C)CC)C(=O)N[C@@H](Cc1ccccc1)C(=O)N[C@@H](CCC(=O)O)C(=O)N1CCC[C@H]1C(=O)N[C@@H](CCCNC(=N)N)C(=O)N[C@H](CO)C(N)=O [compound 247] (Isovaleryl-ETHFPAIK([Ahx-Myristoyl])FEPR[dS]-NH2)	1160
CC(C)CC(=O)N[C@@H](CC(C)C)C(=O)N[C@H](C(=O)N[C@@H](Cc1c[nH]cn1)C(=O)N[C@H](C(=O)N[C@@H](CCCCNC(=O)COCCOCCNC(=O)COCCOCCNC(=O)CC[C@H](NC(=O)CCCCCCCCCCCCCCCCC(=O)O)C(=O)O)C(=O)NCc1ccccc1)C(c1ccccc1)c1ccccc1)[C@@H](C)O [compound 227] (Isovaleryl-LTH[Dip]K([AEEA-AEEA-γGlu-C18 diacid])-NHBn)	> 3000
CC[C@H](C)[C@H](NC(=O)[C@H](C)NC(=O)[C@@H]1CCCN1C(=O)[C@@H](NC(=O)[C@H](Cc1c[nH]cn1)NC(=O)[C@@H](NC(=O)[C@H](CCCCNC(=O)COCCOCCNC(=O)COCCOCCNC(=O)CCCCCNC(=O)CCCCCCCCCCCCCCCCC(=O)O)NC(C)=O)[C@@H](C)O)C(c1ccccc1)c1ccccc1)C(=O)N[C@H](CCCCN)C(=O)N[C@H](CC(N)=O)Cc1ccccc1 [compound 234] (Ac-K([AEEA-AEEA-Ahx-C18 diacid])TH[Dip]PAI[dK][β3hF]-NH2)	> 3000
CCCCCCCCCCCCCCCC(=O)NCCCCCC(=O)NCCCC[C@H](NC(=O)CC(C)C)C(=O)N[C@H](C(=O)N[C@@H](Cc1c[nH]cn1)C(=O)N[C@H](C(=O)N1CCC[C@H]1C(=O)N[C@@H](C)C(=O)N[C@H](C(=O)N[C@H](CCCCN)C(=O)N[C@H](CC(N)=O)Cc1ccccc1)[C@@H](C)CC)C(c1ccccc1)c1ccccc1)[C@@H](C)O [compound 203] (Isovaleryl-K([Ahx-Palmitoyl])TH[Dip]PAI[dK][β3hF]-NH2)	654
